# Results: patent US20130102595A1 (Curis, Inc., priority 2011, published 2013)
# Columns and labels:
# [1] = test system: HDACs (HeLa cell nuclear extracts); assay: HDAC enzymatic activity, Biomol Color de Lys system; type: biochemical; conditions: 1 hour, 25° C.
# In short: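 IC50 from sigmoidal fit of developer-terminated fluorescence (ex 350-380/em 440-460 nm). Reaction: 1 h at room temperature (25 °C), HeLa nuclear extract as HDAC source, artificial substrate, buffer of 50 mM Tris/Cl pH 8.0 with 137 mM NaCl, 2.7 mM KCl and 1 mM MgCl2.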
# PI3Kα (p110α/p85α) = target: T1, PI3Kα (p110α/p85α) (Homo sapiens, UniProt P42336); assay: PI3Kα ADP-Glo assay; type: biochemical; conditions: 20 μM PIP2, 10 μM ATP, 30 minutes
# T1 construct: GST (N); made in house; host or cells: Baculovirus-infected Sf9 cells
# In short: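 Luminescent ADP-Glo detection, after depletion of residual ATP, quantified ADP made by PI3Kα phosphorylating 20 μM PIP2 at 10 μM ATP. The kinase step ran 30 min at room temperature in HEPES pH 7.4 with MgCl2, DTT and orthovanadate, using baculovirus/Sf9-expressed full-length p110α/p85α complex.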
# Calu6 = assay: Cell proliferation assay (CellTiter-Glo); type: cell-based; conditions: Homo sapiens, Calu-6; NSCLC; 72 hours, 0.5% fetal bovine serum; read-out: antiproliferative activity IC50, Calu6
# In short: (§1)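 Inhibition of growth was assessed as loss of ATP signal; cultures at 5,000–10,000 cells per well received serial compound doses for 72 h with 0.5% FBS, then were lysed for 30 min before luminescence reading.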
# WiDr = assay: Cell proliferation assay (CellTiter-Glo); type: cell-based; conditions: Homo sapiens, Colon, 72 hours, 0.5% fetal bovine serum, read-out: antiproliferative activity IC50, WiDr
# In short: as §1
# CaPan2 = assay: Cell proliferation assay (CellTiter-Glo); type: cell-based; conditions: Homo sapiens, Capan-2; Pancreas; 72 hours, 0.5% fetal bovine serum; read-out: antiproliferative activity IC50, CaPan2
# In short: as §1
# PANC-1 = assay: Cell proliferation assay (CellTiter-Glo); type: cell-based; conditions: Homo sapiens, Pancreas, 72 hours, 0.5% fetal bovine serum, read-out: antiproliferative activity IC50, PANC-1
# In short: as §1
# SW1990 = assay: Cell proliferation assay (CellTiter-Glo); type: cell-based; conditions: Homo sapiens, Pancreas, 72 hours, 0.5% fetal bovine serum, read-out: antiproliferative activity IC50, SW1990
# In short: as §1
# CFPAC-1 = assay: Cell proliferation assay (CellTiter-Glo); type: cell-based; conditions: Homo sapiens, Pancreas, 72 hours, 0.5% fetal bovine serum, read-out: antiproliferative activity IC50, CFPAC-1
# In short: as §1
# H460 = assay: Cell proliferation assay (CellTiter-Glo); type: cell-based; conditions: Homo sapiens, NCI-H460; NSCLC; 72 hours, 0.5% fetal bovine serum; read-out: antiproliferative activity IC50, H460
# In short: as §1
# HCT116 = assay: Cell proliferation assay (CellTiter-Glo); type: cell-based; conditions: Homo sapiens, HCT-116; Colon; 72 hours, 0.5% fetal bovine serum; read-out: antiproliferative activity IC50, HCT116
# In short: as §1
# MiaPaca1 = assay: Cell proliferation assay (CellTiter-Glo); type: cell-based; conditions: Pancreas; 72 hours, 0.5% fetal bovine serum; read-out: antiproliferative activity IC50, MiaPaca1
# In short: as §1
# MDA-MB-231 = assay: Cell proliferation assay (CellTiter-Glo); type: cell-based; conditions: Homo sapiens, Breast, 72 hours, 0.5% fetal bovine serum, read-out: antiproliferative activity IC50, MDA-MB-231
# In short: as §1
# T1 sequence (P42336 whole entry): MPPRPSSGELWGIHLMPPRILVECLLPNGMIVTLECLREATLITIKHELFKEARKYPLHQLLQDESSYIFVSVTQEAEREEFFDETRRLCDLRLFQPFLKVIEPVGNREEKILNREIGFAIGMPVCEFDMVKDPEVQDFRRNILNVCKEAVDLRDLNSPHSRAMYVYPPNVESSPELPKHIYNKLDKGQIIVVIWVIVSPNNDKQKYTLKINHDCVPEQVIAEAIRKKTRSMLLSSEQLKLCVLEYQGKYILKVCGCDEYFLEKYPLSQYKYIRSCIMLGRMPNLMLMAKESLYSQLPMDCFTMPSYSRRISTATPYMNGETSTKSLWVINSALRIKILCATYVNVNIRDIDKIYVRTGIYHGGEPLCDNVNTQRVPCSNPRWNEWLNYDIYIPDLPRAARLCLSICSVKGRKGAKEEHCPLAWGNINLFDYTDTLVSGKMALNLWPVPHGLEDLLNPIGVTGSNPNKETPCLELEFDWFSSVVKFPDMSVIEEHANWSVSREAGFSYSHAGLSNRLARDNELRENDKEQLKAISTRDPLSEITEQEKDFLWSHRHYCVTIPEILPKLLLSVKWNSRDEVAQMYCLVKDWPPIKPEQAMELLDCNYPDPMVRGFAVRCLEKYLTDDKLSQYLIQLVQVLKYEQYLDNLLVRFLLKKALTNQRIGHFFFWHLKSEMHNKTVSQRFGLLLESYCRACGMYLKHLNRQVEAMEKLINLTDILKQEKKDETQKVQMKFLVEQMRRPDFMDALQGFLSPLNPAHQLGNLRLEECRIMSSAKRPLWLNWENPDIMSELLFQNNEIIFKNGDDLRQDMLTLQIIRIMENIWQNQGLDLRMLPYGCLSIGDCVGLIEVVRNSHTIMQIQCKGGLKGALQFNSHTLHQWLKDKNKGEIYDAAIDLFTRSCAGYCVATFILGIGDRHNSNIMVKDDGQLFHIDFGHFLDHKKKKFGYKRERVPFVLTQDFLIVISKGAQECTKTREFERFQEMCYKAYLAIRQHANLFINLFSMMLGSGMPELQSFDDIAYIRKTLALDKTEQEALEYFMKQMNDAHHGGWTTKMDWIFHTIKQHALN
# T1 sequence (P27986 whole entry partner): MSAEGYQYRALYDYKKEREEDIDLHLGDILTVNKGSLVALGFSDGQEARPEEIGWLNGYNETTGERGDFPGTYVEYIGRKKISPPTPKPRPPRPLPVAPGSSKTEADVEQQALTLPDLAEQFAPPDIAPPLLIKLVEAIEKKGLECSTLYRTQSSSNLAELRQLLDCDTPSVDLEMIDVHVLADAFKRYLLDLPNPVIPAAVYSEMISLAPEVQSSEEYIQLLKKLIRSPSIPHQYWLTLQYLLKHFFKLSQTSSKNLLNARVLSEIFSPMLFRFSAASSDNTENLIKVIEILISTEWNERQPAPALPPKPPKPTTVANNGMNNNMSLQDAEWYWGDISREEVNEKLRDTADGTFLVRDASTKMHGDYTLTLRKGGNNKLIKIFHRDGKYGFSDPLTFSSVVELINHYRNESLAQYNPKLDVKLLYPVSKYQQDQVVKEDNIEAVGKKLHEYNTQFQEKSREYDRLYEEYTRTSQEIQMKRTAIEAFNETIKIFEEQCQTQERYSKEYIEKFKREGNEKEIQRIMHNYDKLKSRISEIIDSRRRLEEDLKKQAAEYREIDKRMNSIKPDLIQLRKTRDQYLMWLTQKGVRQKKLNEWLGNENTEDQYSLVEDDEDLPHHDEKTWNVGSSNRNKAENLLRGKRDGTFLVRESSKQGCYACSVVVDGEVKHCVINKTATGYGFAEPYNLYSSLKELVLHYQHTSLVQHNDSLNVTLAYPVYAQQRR
Structure (SMILES),IC50 [1] [nM],IC50 (PI3Kα (p110α/p85α)) [nM],IC50 (Calu6) [nM],IC50 (WiDr) [nM],IC50 (CaPan2) [nM],IC50 (PANC-1) [nM],IC50 (SW1990) [nM],IC50 (CFPAC-1) [nM],IC50 (H460) [nM],IC50 (HCT116) [nM],IC50 (MiaPaca1) [nM],IC50 (MDA-MB-231) [nM]
"CN(Cc1cc2nc(-c3ccc(N)cc3)nc(N3CCOCC3)c2s1)c1ncc(C(=O)NO)cn1 [Compound 150, 2-(((2-(4-aminophenyl)-4-morpholinothieno[3,2-d]pyrimidin-6-yl)methyl)(methyl)amino)-N-hydroxypyrimidine-5-carboxamide]",< 100,< 100,< 10,10 to 100,< 10,10 to 100,< 10,10 to 100,10 to 100,< 10,< 10,< 10
"CNc1ccc(-c2nc(N3CCOCC3)c3sc(CN(C)c4ncc(C(=O)NO)cn4)cc3n2)cn1 [Compound 111, N-Hydroxy-2-(methyl((2-(6-(methylamino)pyridin-3-yl)-4-morpholinothieno[3,2-d]pyrimidin-6-yl)methyl)amino)pyrimidine-5-carboxamide]",< 100,< 100,10 to 100,10 to 100,10 to 100,10 to 100,< 10,10 to 100,10 to 100,< 10,< 10,100 to 1000
"CN(Cc1cc2nc(-c3cccc4[nH]ncc34)nc(N3CCOCC3)c2s1)c1ncc(C(=O)NO)cn1 [Compound 54, 2-(((2-(1H-indazol-4-yl)-4-morpholinothieno[3,2-d]pyrimidin-6-yl)methyl)(methyl)amino)-N-hydroxypyrimidine-5-carboxamide]",< 100,< 100,10 to 100,10 to 100,10 to 100,10 to 100,10 to 100,100 to 1000,100 to 1000,< 10,10 to 100,10 to 100
